Results from patent US8247211B2, “Glycopeptide antibiotics” (American Cyanamid Company, priority 2001, dated 2012).
≈ marks a conversion by molar mass, not a printed value.

What was measured:
Assay in all cases: In vitro antibacterial evaluation: minimum inhibitory concentration (MIC), broth dilution method
Format in all cases: cell-based
Streptococcus sp. = test system: Streptococcus sp.
Protocol: (§1) The minimum inhibitory concentration (MIC), the lowest concentration of the antibiotic which inhibits growth of the test organism, is determined by the broth dilution method using Muller-Hinton II […] (Baltimore Biological Laboratories) following the recommendations of the National Committee for Clinical Laboratory Standards [Methods for dilution antimicrobial susceptibility tests for bacteria that grow aerobically, approved standard M7-A2, National Committee for Clinical Laboratory Standards, Villanova, Pa].
(§2) An inoculum level of 5×10^5 CFU/mL, and a range of antibiotic concentrations (64-0.06 μg/mL) is used. […] The test organisms include a spectrum of Gram-positive bacteria comprised of Staphylococcus sp., Streptococcus sp. and Enterococcus sp. These organisms include recent clinical isolates that are resistant to methicillin, penicillin and/or vancomycin.

Staphylococcus sp. = settings: broth dilution, 18 hours at 35° C.
Protocol: as §1, §2

Enterococcus sp. = settings: for MIC Enterococcus faecalis (ATCC 29212): strain ATCC 29212; for MIC Enterococcus faecium (GC 2243): strain GC 2243; for MIC Enterococcus faecalis (GC 4552): strain GC 4552; for MIC Enterococcus faecalis (GC 4553): strain GC 4553; for MIC Enterococcus faecalis (GC 4554): strain GC 4554; for MIC Enterococcus faecium (GC 4556): strain GC 4556; for MIC Enterococcus faecium (GC 4557): strain GC 4557; for MIC Enterococcus avium (GC 4558): strain GC 4558; for MIC Enterococcus faecalis (GC 6189): strain GC 6189
Protocol: as §1, §2

Escherichia coli = test system: Escherichia coli
Protocol: as §1, §2

COc1cccc(C2OC3C(OC4C(CO)OC(Oc5ccc(CC6NC(=O)C(C(C)c7ccccc7)NC(=O)CNC(=O)C(CO)NC(=O)C(C(O)C7CNC(=N)N7C7OC(CO)C(O)C(O)C7O)NC(=O)C(C(O)C7CNC(=N)N7)NC6=O)cc5)C(O)C4O)OC(CO)C(O)C3O2)c1 (single isomer, unassigned) [Example 137b, Cyclo[glycyl-β-methylphenylalanyl-O-[4-O-[2,3-O-(3-methoxybenzylidene)hexopyranosyl]-hexopyranosyl]tyrosyl-3-(2-iminoimidazolidin-4-yl)seryl-3-(3-hexopyranosyl-2-iminoimidazolidin-4-yl)serylseryl]]
MIC Streptococcus pneumoniae (ATCC 6301) (Streptococcus sp.; strain ATCC 6301): 2 mg/L (≈ 1.42 µM) | MIC Streptococcus pneumoniae (GC 1894) (Streptococcus sp.; strain GC 1894): 1 mg/L (≈ 0.708 µM) | MIC Streptococcus pyogenes (GC 4563) (Streptococcus sp.; strain GC 4563): 4 mg/L (≈ 2.83 µM) | MIC Streptococcus agalactiae (GC 4564) (Streptococcus sp.; strain GC 4564): 4 mg/L (≈ 2.83 µM) | MIC Streptococcus pneumoniae (GC 4565) (Streptococcus sp.; strain GC 4565): 2 mg/L (≈ 1.42 µM) | MIC Coagulase Negative Staphylococcus (GC 4547) (Staphylococcus sp.; 5×10^5 CFU/mL): 8 mg/L (≈ 5.66 µM) | MIC Coagulase Negative Staphylococcus (GC 4548) (Staphylococcus sp.; 5×10^5 CFU/mL): 4 mg/L (≈ 2.83 µM) | MIC Coagulase Negative Staphylococcus (GC 4549) (Staphylococcus sp.; 5×10^5 CFU/mL): 8 mg/L (≈ 5.66 µM) | MIC Coagulase Negative Staphylococcus (GC 4551) (Staphylococcus sp.; 5×10^5 CFU/mL): 8 mg/L (≈ 5.66 µM) | MIC Coagulase Negative Staphylococcus (GC 6257) (Staphylococcus sp.; 5×10^5 CFU/mL): 4 mg/L (≈ 2.83 µM) | MIC Staphylococcus aureus (ATCC 29213) (Staphylococcus sp.; 5×10^5 CFU/mL): 16 mg/L (≈ 11.3 µM) | MIC Staphylococcus aureus (GC 1131) (Staphylococcus sp.; 5×10^5 CFU/mL): 16 mg/L (≈ 11.3 µM) | MIC Staphylococcus aureus (GC 3051) (Staphylococcus sp.; 5×10^5 CFU/mL): 16 mg/L (≈ 11.3 µM) | MIC Staphylococcus aureus (GC 3053) (Staphylococcus sp.; 5×10^5 CFU/mL): 16 mg/L (≈ 11.3 µM) | MIC Staphylococcus aureus (GC 4541) (Staphylococcus sp.; 5×10^5 CFU/mL): 8 mg/L (≈ 5.66 µM) | MIC Staphylococcus aureus (GC 4542) (Staphylococcus sp.; 5×10^5 CFU/mL): 16 mg/L (≈ 11.3 µM) | MIC Staphylococcus aureus (GC 4544) (Staphylococcus sp.; 5×10^5 CFU/mL): 16 mg/L (≈ 11.3 µM) | MIC Staphylococcus aureus (GC 4545) (Staphylococcus sp.; 5×10^5 CFU/mL): 16 mg/L (≈ 11.3 µM) | MIC Staphylococcus aureus-SMITH (GC 4543) (Staphylococcus sp.; 5×10^5 CFU/mL): 8 mg/L (≈ 5.66 µM) | MIC Staphylococcus haemolyticus (GC 4546) (Staphylococcus sp.; 5×10^5 CFU/mL): 8 mg/L (≈ 5.66 µM) | MIC Staphylococcus aureus (ATCC 29213) (Staphylococcus sp.; strain ATCC 29213): 16 mg/L (≈ 11.3 µM) | MIC Staphylococcus aureus (GC 1131) (Staphylococcus sp.; strain GC 1131): 16 mg/L (≈ 11.3 µM) | MIC Staphylococcus aureus (GC 3051) (Staphylococcus sp.; strain GC 3051): 16 mg/L (≈ 11.3 µM) | MIC Staphylococcus aureus (GC 3053) (Staphylococcus sp.; strain GC 3053): 16 mg/L (≈ 11.3 µM) | MIC Staphylococcus aureus (GC 4541) (Staphylococcus sp.; strain GC 4541): 8 mg/L (≈ 5.66 µM) | MIC Staphylococcus aureus (GC 4542) (Staphylococcus sp.; strain GC 4542): 16 mg/L (≈ 11.3 µM) | MIC Staphylococcus aureus-SMITH (GC 4543) (Staphylococcus sp.; strain GC 4543): 8 mg/L (≈ 5.66 µM) | MIC Staphylococcus aureus (GC 4544) (Staphylococcus sp.; strain GC 4544): 16 mg/L (≈ 11.3 µM) | MIC Staphylococcus aureus (GC 4545) (Staphylococcus sp.; strain GC 4545): 16 mg/L (≈ 11.3 µM) | MIC Staphylococcus haemolyticus (GC 4546) (Staphylococcus sp.; strain GC 4546): 8 mg/L (≈ 5.66 µM) | MIC Coagulase Negative Staphylococcus (GC 4547) (Staphylococcus sp.; strain GC 4547): 8 mg/L (≈ 5.66 µM) | MIC Coagulase Negative Staphylococcus (GC 4548) (Staphylococcus sp.; strain GC 4548): 4 mg/L (≈ 2.83 µM) | MIC Coagulase Negative Staphylococcus (GC 4549) (Staphylococcus sp.; strain GC 4549): 8 mg/L (≈ 5.66 µM) | MIC Coagulase Negative Staphylococcus (GC 4551) (Staphylococcus sp.; strain GC 4551): 8 mg/L (≈ 5.66 µM) | MIC Coagulase Negative Staphylococcus (GC 6257) (Staphylococcus sp.; strain GC 6257): 4 mg/L (≈ 2.83 µM) | MIC Enterococcus faecalis (ATCC 29212) (Enterococcus sp.): 32 mg/L (≈ 22.6 µM) | MIC Enterococcus faecalis (GC 2242) (Enterococcus sp.; strain GC 2242): 32 mg/L (≈ 22.6 µM) | MIC Enterococcus faecium (GC 2243) (Enterococcus sp.): 64 mg/L (≈ 45.3 µM) | MIC Enterococcus faecalis (GC 2691) (Enterococcus sp.; strain GC 2691): 32 mg/L (≈ 22.6 µM) | MIC Enterococcus faecalis (GC 3059) (Enterococcus sp.; strain GC 3059): 64 mg/L (≈ 45.3 µM) | MIC Enterococcus faecalis (GC 4552) (Enterococcus sp.): 32 mg/L (≈ 22.6 µM) | MIC Enterococcus faecalis (GC 4553) (Enterococcus sp.): 32 mg/L (≈ 22.6 µM) | MIC Enterococcus faecalis (GC 4554) (Enterococcus sp.): 64 mg/L (≈ 45.3 µM) | MIC Enterococcus faecium (GC 4556) (Enterococcus sp.): 32 mg/L (≈ 22.6 µM) | MIC Enterococcus faecium (GC 4557) (Enterococcus sp.): 8 mg/L (≈ 5.66 µM) | MIC Enterococcus avium (GC 4558) (Enterococcus sp.): 32 mg/L (≈ 22.6 µM) | MIC Enterococcus faecalis (GC 6189) (Enterococcus sp.): 32 mg/L (≈ 22.6 µM) | MIC Escherichia coli (ATCC 25922) (Escherichia coli; strain ATCC 25922): >64 mg/L | MIC Escherichia coli (GC 4559) (Escherichia coli; strain GC 4559): >64 mg/L | MIC Escherichi coli (GC 4560) (Escherichia coli; strain GC 4560): 4 mg/L (≈ 2.83 µM)

CC(c1ccccc1)C1NC(=O)CNC(=O)C(CO)NC(=O)C(C(O)C2CN(Cc3ccccc3)C(=NCc3ccccc3)N2C2OC(CO)C(O)C(O)C2O)NC(=O)C(C(O)C2CN(Cc3ccccc3)C(=NCc3ccccc3)N2Cc2ccccc2)NC(=O)C(Cc2ccc(OC3OC(CO)C(OC4OC5COC6(OC5C(O)C4O)C4CC5CC(C4)CC6C5)C(O)C3O)cc2)NC1=O (stereo not drawn) [Example 79, Cyclo[glycyl-β-methylphenylalanyl-O-[4-O-[4,6-O-(2-adamantylidene)hexopyranosyl]hexopyranosyl]tyrosyl-3-[1,3-dibenzyl-2-(benzylimino)imidazolidin-4-yl]seryl-3-[1-benzyl-2-(benzylimino)-3-hexopyranosylimidazolidin-4-yl]serylseryl]]
MIC Streptococcus agalactiae (GC 4564) (Streptococcus sp.; Streptococcus agalactiae (GC 4564), broth dilution, 18 hours at 35° C.): 4 mg/L (≈ 2.13 µM) | MIC Streptococcus pneumoniae (ATCC 6301) (Streptococcus sp.; Streptococcus pneumoniae (ATCC 6301), broth dilution, 18 hours at 35° C.): 4 mg/L (≈ 2.13 µM) | MIC Streptococcus pneumoniae (GC 1894) (Streptococcus sp.; Streptococcus pneumoniae (GC 1894), broth dilution, 18 hours at 35° C.): 8 mg/L (≈ 4.26 µM) | MIC Streptococcus pneumoniae (GC 4565) (Streptococcus sp.; Streptococcus pneumoniae (GC 4565), broth dilution, 18 hours at 35° C.): 8 mg/L (≈ 4.26 µM) | MIC Streptococcus pyogenes (GC 4563) (Streptococcus sp.; Streptococcus pyogenes (GC 4563), broth dilution, 18 hours at 35° C.): 4 mg/L (≈ 2.13 µM) | MIC Streptococcus pneumoniae (ATCC 6301) (Streptococcus sp.; strain ATCC 6301): 4 mg/L (≈ 2.13 µM) | MIC Streptococcus pneumoniae (GC 1894) (Streptococcus sp.; strain GC 1894): 8 mg/L (≈ 4.26 µM) | MIC Streptococcus pyogenes (GC 4563) (Streptococcus sp.; strain GC 4563): 4 mg/L (≈ 2.13 µM) | MIC Streptococcus agalactiae (GC 4564) (Streptococcus sp.; strain GC 4564): 4 mg/L (≈ 2.13 µM) | MIC Streptococcus pneumoniae (GC 4565) (Streptococcus sp.; strain GC 4565): 8 mg/L (≈ 4.26 µM) | MIC Coagulase Negative Staphylococcus (GC 4547) (Staphylococcus sp.): 4 mg/L (≈ 2.13 µM) | MIC Coagulase Negative Staphylococcus (GC 4548) (Staphylococcus sp.): 4 mg/L (≈ 2.13 µM) | MIC Coagulase Negative Staphylococcus (GC 4549) (Staphylococcus sp.): 2 mg/L (≈ 1.06 µM) | MIC Coagulase Negative Staphylococcus (GC 4551) (Staphylococcus sp.): 4 mg/L (≈ 2.13 µM) | MIC Coagulase Negative Staphylococcus (GC 6257) (Staphylococcus sp.): 4 mg/L (≈ 2.13 µM) | MIC Staphylococcus aureus (ATCC 29213) (Staphylococcus sp.): 4 mg/L (≈ 2.13 µM) | MIC Staphylococcus aureus (GC 1131) (Staphylococcus sp.): 8 mg/L (≈ 4.26 µM) | MIC Staphylococcus aureus (GC 3051) (Staphylococcus sp.): 4 mg/L (≈ 2.13 µM) | MIC Staphylococcus aureus (GC 3053) (Staphylococcus sp.): 4 mg/L (≈ 2.13 µM) | MIC Staphylococcus aureus (GC 4541) (Staphylococcus sp.): 4 mg/L (≈ 2.13 µM) | MIC Staphylococcus aureus (GC 4542) (Staphylococcus sp.): 4 mg/L (≈ 2.13 µM) | MIC Staphylococcus aureus (GC 4544) (Staphylococcus sp.): 8 mg/L (≈ 4.26 µM) | MIC Staphylococcus aureus (GC 4545) (Staphylococcus sp.): 4 mg/L (≈ 2.13 µM) | MIC Staphylococcus aureus SMITH (GC 4543) (Staphylococcus sp.): 4 mg/L (≈ 2.13 µM) | MIC Staphylococcus haemolyticus (GC 4546) (Staphylococcus sp.): 4 mg/L (≈ 2.13 µM) | MIC Staphylococcus aureus-SMITH (GC 4543) (Staphylococcus sp.; strain SMITH GC 4543): 4 mg/L (≈ 2.13 µM) | MIC Enterococcus faecalis (GC 2242) (Enterococcus sp.; Enterococcus faecalis (GC 2242), broth dilution, 18 hours at 35° C.): 16 mg/L (≈ 8.52 µM) | MIC Enterococcus faecalis (GC 2691) (Enterococcus sp.; Enterococcus faecalis (GC 2691), broth dilution, 18 hours at 35° C.): 8 mg/L (≈ 4.26 µM) | MIC Enterococcus faecalis (GC 3059) (Enterococcus sp.; Enterococcus faecalis (GC 3059), broth dilution, 18 hours at 35° C.): 32 mg/L (≈ 17 µM) | MIC Enterococcus faecalis (ATCC 29212) (Enterococcus sp.): 8 mg/L (≈ 4.26 µM) | MIC Enterococcus faecalis (GC 2242) (Enterococcus sp.; strain GC 2242): 16 mg/L (≈ 8.52 µM) | MIC Enterococcus faecium (GC 2243) (Enterococcus sp.): 8 mg/L (≈ 4.26 µM) | MIC Enterococcus faecalis (GC 2691) (Enterococcus sp.; strain GC 2691): 8 mg/L (≈ 4.26 µM) | MIC Enterococcus faecalis (GC 3059) (Enterococcus sp.; strain GC 3059): 32 mg/L (≈ 17 µM) | MIC Enterococcus faecalis (GC 4552) (Enterococcus sp.): 32 mg/L (≈ 17 µM) | MIC Enterococcus faecalis (GC 4553) (Enterococcus sp.): 4 mg/L (≈ 2.13 µM) | MIC Enterococcus faecalis (GC 4554) (Enterococcus sp.): 16 mg/L (≈ 8.52 µM) | MIC Enterococcus faecium (GC 4556) (Enterococcus sp.): 32 mg/L (≈ 17 µM) | MIC Enterococcus faecium (GC 4557) (Enterococcus sp.): 4 mg/L (≈ 2.13 µM) | MIC Enterococcus avium (GC 4558) (Enterococcus sp.): 2 mg/L (≈ 1.06 µM) | MIC Enterococcus faecalis (GC 6189) (Enterococcus sp.): 8 mg/L (≈ 4.26 µM) | MIC Escherichia coli (GC 4560) (Escherichia coli; strain GC 4560): 2 mg/L (≈ 1.06 µM)
